In brackets after ≈: the same amount, converted by molar mass. Like-named read-outs stand apart in the source and are kept apart here.
Key:
Type in all cases: cell-based
[1] = system: Clostridium perfringens PB6K strain; assay: microbe, parasite or virus in culture; settings: Clostridium perfringens, PB6KSTRAIN, read-out: MIC Clostridium perfringens PB6K, PB6K strain; CD medium, 37° C. overnight, 10% CO2-containing anaerobic conditions
[2] = system: Escherichia coli BE1121 strain; assay: MIC for Escherichia coli BE1121 strain; settings: Escherichia coli, BE1121STRAIN, read-out: MIC Escherichia coli BE1121
[3] = system: Staphylococcus aureus 209P strain; assay: MIC for Staphylococcus aureus 209P strain; settings: Staphylococcus aureus, read-out: MIC Straphyrococcus aureus 209P
[4] = system: Staphylococcus aureus Smith strain; assay: MIC for Staphylococcus aureus Smith strain; settings: read-out: MIC Straphyrococcus aureus Smith
[5] = system: Clostridium difficile JCM1296 strain; assay: microbe, parasite or virus in culture; settings: Clostridioides difficile, JCM1296, read-out: MIC Clostridium difficile JCM1296
[6] = system: Staphylococcus aureus MRSA No. 17 (methicillin-resistant Staphylococcus aureus: MRSA); assay: MIC for Staphylococcus aureus MRSA No. 17; settings: read-out: MIC Straphyrococcus aureus MRSA No. 17 (MRSA)
[7] = system: Enterococcus faecalis NCTC12201 strain (vancomycin-resistant Enterococcus: VRE); assay: MIC for Enterococcus faecalis NCTC12201 strain (VRE); settings: read-out: MIC Enterococcus faecalis NCTC 12201 (VRE)
[8] = system: Escherichia coli K-12 strain; assay: MIC for Escherichia coli K-12 strain; settings: Escherichia coli, K12STRAIN, read-out: MIC Escherichia coli K12
[9] = system: Enterococcus faecalis 5038 strain; assay: MIC for Enterococcus faecalis 5038 strain; settings: read-out: MIC Enterococcus faecalis 5038
[10] = BE1121 strain, regular bouillon medium, 37° C. overnight, turbidity
[11] = 209P strain, regular bouillon medium, 37° C. overnight, turbidity
[12] = K-12 strain, regular bouillon medium, 37° C. overnight, turbidity
[13] = Smith strain, regular bouillon medium, 37° C. overnight, turbidity
[14] = MRSA No. 17, regular bouillon medium, 37° C. overnight, turbidity
[15] = NCTC12201 strain (VRE), Heart Infusion Broth medium, 37° C. overnight, turbidity
[16] = 5038 strain, Heart Infusion Broth medium, 37° C. overnight, turbidity

Row | SMILES | MIC [1] | MIC [2, 10] | MIC [3, 11] | MIC [4] | MIC [5] | MIC ([6]; MRSA) | MIC [7] | MIC [8, 12] | MIC ([9]; 5038STRAIN) | MIC [4, 13] | MIC [6, 14] | MIC [7, 15] | MIC [9, 16] | MIC [2] | MIC ([3]; 209P) | MIC [8]
1 | CCCCCCCCCC(=O)N1C(=O)C(=C(O)c2ccccc2O)c2ccccc21 [A063, N-decanoyl-3-(2-hydroxybenzoyl)-2-oxyindole] | 256 µg/mL (≈ 628 µM) | 128 µg/mL (≈ 314 µM) | 256 µg/mL (≈ 628 µM) | 256 µg/mL (≈ 628 µM) | 16 µg/mL (≈ 39.3 µM) | 256 µg/mL (≈ 628 µM) | 256 µg/mL (≈ 628 µM) | 128 µg/mL (≈ 314 µM) | 256 µg/mL (≈ 628 µM) | – | – | – | – | – | – | –
2 | CCCCCCCCCC(=O)c1c(O)c2ccc(OC)cc2oc1=O [B001, 3-decanoyl-4-hydroxy-7-methoxycoumarin] | 64 µg/mL (≈ 185 µM) | 256 µg/mL (≈ 739 µM) | 256 µg/mL (≈ 739 µM) | – | 64 µg/mL (≈ 185 µM) | – | – | 256 µg/mL (≈ 739 µM) | – | 128 µg/mL (≈ 369 µM) | 256 µg/mL (≈ 739 µM) | 64 µg/mL (≈ 185 µM) | 64 µg/mL (≈ 185 µM) | – | – | –
3 | CCCCC1CCC(C(=O)c2c(O)c3cc(F)ccc3oc2=O)CC1 (stereo not drawn) [B009, 3-(4-butylcyclohexylcarbonyl)-6-fluoro-4-hydroxycoumarin] | 1 µg/mL (≈ 2.89 µM) | 4 µg/mL (≈ 11.5 µM) | 1 µg/mL (≈ 2.89 µM) | 0.5 µg/mL (≈ 1.44 µM) | 0.25 µg/mL (≈ 0.722 µM) | 1 µg/mL (≈ 2.89 µM) | 0.5 µg/mL (≈ 1.44 µM) | 256 µg/mL (≈ 739 µM) | 0.5 µg/mL (≈ 1.44 µM) | – | – | – | – | – | – | –
4 | CCCCCCCCCC(=O)N[C@@H](C)C(=O)c1c(O)c2ccccc2oc1=O [B011, 3-(2-decanoylaminopropionyl)-4-hydroxycoumarin] | 1 µg/mL (≈ 2.58 µM) | 256 µg/mL (≈ 661 µM) | 256 µg/mL (≈ 661 µM) | – | 2 µg/mL (≈ 5.16 µM) | – | – | 256 µg/mL (≈ 661 µM) | – | 256 µg/mL (≈ 661 µM) | 256 µg/mL (≈ 661 µM) | 256 µg/mL (≈ 661 µM) | 256 µg/mL (≈ 661 µM) | – | – | –
5 | CCCCCCCCCC(=O)c1c(O)c2cc(C)ccc2oc1=O [B012, 3-decanoyl-6-methyl-4-hydroxycoumarin] | 0.5 µg/mL (≈ 1.51 µM) | 256 µg/mL (≈ 775 µM) | 0.5 µg/mL (≈ 1.51 µM) | – | 0.25 µg/mL (≈ 0.757 µM) | – | – | 256 µg/mL (≈ 775 µM) | – | 0.5 µg/mL (≈ 1.51 µM) | 0.5 µg/mL (≈ 1.51 µM) | 0.25 µg/mL (≈ 0.757 µM) | 0.25 µg/mL (≈ 0.757 µM) | – | – | –
6 | O=C(NCC(=O)c1c(O)c2ccccc2oc1=O)c1ccccc1 [B013, 3-benzoylaminoacetyl-4-hydroxycoumarin] | 128 µg/mL (≈ 396 µM) | 256 µg/mL (≈ 792 µM) | 256 µg/mL (≈ 792 µM) | – | 128 µg/mL (≈ 396 µM) | – | – | 256 µg/mL (≈ 792 µM) | – | 256 µg/mL (≈ 792 µM) | 256 µg/mL (≈ 792 µM) | 256 µg/mL (≈ 792 µM) | 256 µg/mL (≈ 792 µM) | – | – | –
7 | CCCCCCCCCCOCC(=O)c1c(O)c2ccccc2oc1=O [B015, 3-decyloxyacetyl-4-hydroxycoumarin] | 25 µg/mL (≈ 69.4 µM) | – | – | 2 µg/mL (≈ 5.55 µM) | 0.25 µg/mL (≈ 0.694 µM) | 8 µg/mL (≈ 22.2 µM) | 2 µg/mL (≈ 5.55 µM) | – | 4 µg/mL (≈ 11.1 µM) | – | – | – | – | 128 µg/mL (≈ 355 µM) | 8 µg/mL (≈ 22.2 µM) | 256 µg/mL (≈ 710 µM)
8 | CCCCCCCCCC(=O)NCC(=O)c1c(O)c2ccccc2oc1=O [B016, 3-decanoylaminoacetyl-4-hydroxycoumarin] | 16 µg/mL (≈ 42.8 µM) | 256 µg/mL (≈ 686 µM) | 256 µg/mL (≈ 686 µM) | – | 8 µg/mL (≈ 21.4 µM) | – | – | 256 µg/mL (≈ 686 µM) | – | 256 µg/mL (≈ 686 µM) | 256 µg/mL (≈ 686 µM) | 256 µg/mL (≈ 686 µM) | 256 µg/mL (≈ 686 µM) | – | – | –
9 | CCCCCCCCCCOC(C)C(=O)c1c(O)c2ccccc2oc1=O (stereo not drawn) [B017, 3-(2-decyloxypropionyl)-4-hydroxycoumarin] | 0.25 µg/mL (≈ 0.668 µM) | 256 µg/mL (≈ 684 µM) | 8 µg/mL (≈ 21.4 µM) | 2 µg/mL (≈ 5.34 µM) | < 0.125 µg/mL | 4 µg/mL (≈ 10.7 µM) | 0.5 µg/mL (≈ 1.34 µM) | 256 µg/mL (≈ 684 µM) | 1 µg/mL (≈ 2.67 µM) | – | – | – | – | – | – | –
10 | CCCCCCCCCCOCC(=O)c1c(O)c2cc(F)ccc2oc1=O [B019, 3-decyloxyacetyl-6-fluoro-4-hydroxycoumarin] | < 0.125 µg/mL | 256 µg/mL (≈ 676 µM) | 256 µg/mL (≈ 676 µM) | – | < 0.125 µg/mL | – | – | 256 µg/mL (≈ 676 µM) | – | 256 µg/mL (≈ 676 µM) | 256 µg/mL (≈ 676 µM) | 256 µg/mL (≈ 676 µM) | 256 µg/mL (≈ 676 µM) | – | – | –
11 | CCCCCCCCNC(=O)c1c(O)c2ccccc2oc1=O [B020, 3-(octylaminocarbonyl)-4-hydroxycoumarin] | 8 µg/mL (≈ 25.2 µM) | 32 µg/mL (≈ 101 µM) | 8 µg/mL (≈ 25.2 µM) | – | 1 µg/mL (≈ 3.15 µM) | – | – | 64 µg/mL (≈ 202 µM) | – | 8 µg/mL (≈ 25.2 µM) | 16 µg/mL (≈ 50.4 µM) | 1 µg/mL (≈ 3.15 µM) | 1 µg/mL (≈ 3.15 µM) | – | – | –
12 | CCCCCOCC(=O)c1c(O)c2ccccc2oc1=O [B021, 4-hydroxy-3-(pentyloxyacetyl)coumarin] | 32 µg/mL (≈ 110 µM) | – | – | 128 µg/mL (≈ 441 µM) | 8 µg/mL (≈ 27.6 µM) | 123 µg/mL (≈ 424 µM) | 64 µg/mL (≈ 220 µM) | – | 32 µg/mL (≈ 110 µM) | – | – | – | – | 16 µg/mL (≈ 55.1 µM) | 32 µg/mL (≈ 110 µM) | 128 µg/mL (≈ 441 µM)

From US9512075B2 (OKAYAMA UNIVERSITY, priority 2012, dated 2016)
